Reference: ChEMBL document CHEMBL4808189, “The combination of sesamol and clofibric acid moieties leads to a novel potent hypolipidemic agent with antioxidant, anti-inflammatory and hepatoprotective activity” (Bioorg Med Chem Lett, 2021)
Calls of active or inactive are those of the source.

Experiments:
Mus musculus [1] = assay: Hypolipidemic activity in TritonWR1339-induced hyperlipidemic Kunming mouse model assessed as reduction in plasma TG level at 0.362 mmol/kg, ig administered for 7 days; type: functional; conditions: po, 168 h, time 7 day
[2] = Hepatotoxicity in Kunming mouse assessed as increase in plasma total protein level at 412 mg/kg, ig for 1 month; type: toxicity, organism-based; conditions: in vivo, po, 730 h, time 1 months
[3] = Acute toxicity in Kunming mouse assessed as change in body weight at 412 mg/kg, ig for 1 month; type: organism-based; conditions: in vivo, po, 730 h, time 1 months
[4] = Hepatotoxicity in Kunming mouse assessed as induction of oxidative stress by measuring decrease in plasma CAT level at 412 mg/kg, ig for 1 month; type: toxicity, organism-based; conditions: in vivo, po, 730 h, time 1 months
[5] = Hepatotoxicity in Kunming mouse assessed as hepatocyte swelling at 412 mg/kg, ig for 1 month by H and E staining based analysis; type: toxicity, organism-based; conditions: in vivo, po, 730 h, time 1 months
[6] = Hepatotoxicity in Kunming mouse assessed as induction of oxidative stress by measuring decrease in plasma superoxide dismutase level at 412 mg/kg, ig for 1 month; type: toxicity, organism-based; conditions: in vivo, po, 730 h, time 1 months
[7] = Hepatotoxicity in Kunming mouse assessed as cell infiltration in central vein and inflammatory cell infiltration at 412 mg/kg, ig for 1 month by H and E staining based analysis; type: toxicity, organism-based; conditions: in vivo, po, 730 h, time 1 months
[8] = Hepatotoxicity in Kunming mouse assessed as increase in plasma aspartate transaminase level at 412 mg/kg, ig for 1 month; type: toxicity, organism-based; conditions: in vivo, po, 730 h, time 1 months
[9] = Upregulation of p-NF-kB-p65 protein expression in Kunming mouse liver at 412 mg/kg, ig for 1 month by western blot analysis; type: ADME, organism-based; conditions: in vivo, po, 730 h, time 1 months
[10] = Hepatotoxicity in Kunming mouse assessed as induction of oxidative stress by measuring decrease in plasma GSH level at 412 mg/kg, ig for 1 month; type: toxicity, organism-based; conditions: in vivo, po, 730 h, time 1 months
Mus musculus [11] = assay: Upregulation of HO-1 protein expression in Kunming mouse liver at 412 mg/kg, ig for 1 month by western blot analysis; type: functional, organism-based; conditions: time 1.0 months
[12] = Hepatotoxicity in Kunming mouse assessed as induction of oxidative stress by measuring increase in plasma MDA level at 412 mg/kg, ig for 1 month; type: toxicity, organism-based; conditions: in vivo, po, 730 h, time 1 months
[13] = Hepatotoxicity in Kunming mouse assessed as induction of inflammatory response by measuring upregulation of TNF-alpha level in liver at 412 mg/kg, ig for 1 month by western blot analysis; type: toxicity, organism-based; conditions: in vivo, po, 730 h, time 1 months
[14] = Hepatotoxicity in Kunming mouse assessed as increase in plasma alanine aminotransferase level at 412 mg/kg, ig for 1 month; type: toxicity, organism-based; conditions: in vivo, po, 730 h, time 1 months
Mus musculus [15] = assay: Hypolipidemic activity in TritonWR1339-induced hyperlipidemic Kunming mouse model assessed as reduction in plasma TC level at 0.362 mmol/kg, ig administered for 7 days; type: functional; conditions: po, 168 h, time 7 day
[16] = Hepatotoxicity in Kunming mouse assessed as increase in hepatic weight at 412 mg/kg, ig for 1 month; type: toxicity, organism-based; conditions: in vivo, po, 730 h, time 1 months
[17] = Hepatotoxicity in Kunming mouse assessed as increase in plasma alkaline phosphatase level at 412 mg/kg, ig for 1 month; type: toxicity, organism-based; conditions: in vivo, po, 730 h, time 1 months
[18] = Hepatotoxicity in Kunming mouse assessed as increase in liver coefficient at 412 mg/kg, ig for 1 month; type: toxicity, organism-based; conditions: in vivo, po, 730 h, time 1 months
[19] = Hepatotoxicity in Kunming mouse assessed as induction of inflammatory response by measuring upregulation of IL-6 level in liver at 412 mg/kg, ig for 1 month by western blot analysis; type: toxicity, organism-based; conditions: in vivo, po, 730 h, time 1 months
Mus musculus [20] = assay: Upregulation of Nrf2 protein expression in Kunming mouse liver nucleus at 412 mg/kg, ig for 1 month by western blot analysis; type: functional, organism-based; conditions: time 1.0 months
[21] = Hepatotoxicity in Kunming mouse assessed as increase in plasma alanine aminotransferase level at 300 mg/kg, ig for 1 month; type: toxicity, organism-based; conditions: in vivo, po, 730 h, time 1 months
[22] = Hepatotoxicity in Kunming mouse assessed as increase in plasma alkaline phosphatase level at 300 mg/kg, ig for 1 month; type: toxicity, organism-based; conditions: in vivo, po, 730 h, time 1 months
[23] = Hepatotoxicity in Kunming mouse assessed as induction of oxidative stress by measuring decrease in plasma superoxide dismutase level at 300 mg/kg, ig for 1 month; type: toxicity, organism-based; conditions: in vivo, po, 730 h, time 1 months
[24] = Hepatotoxicity in Kunming mouse assessed as increase in hepatic weight at 300 mg/kg, ig for 1 month; type: toxicity, organism-based; conditions: in vivo, po, 730 h, time 1 months
[25] = Hepatotoxicity in Kunming mouse assessed as induction of oxidative stress by measuring decrease in plasma GSH level at 300 mg/kg, ig for 1 month; type: toxicity, organism-based; conditions: in vivo, po, 730 h, time 1 months
Mus musculus [26] = assay: Upregulation of HO-1 protein expression in Kunming mouse liver at 300 mg/kg, ig for 1 month by western blot analysis; type: functional, organism-based; conditions: time 1.0 months
[27] = Hepatotoxicity in Kunming mouse assessed as increase in liver coefficient at 300 mg/kg, ig for 1 month; type: toxicity, organism-based; conditions: in vivo, po, 730 h, time 1 months
[28] = Acute toxicity in Kunming mouse assessed as change in body weight at 300 mg/kg, ig for 1 month; type: organism-based; conditions: in vivo, po, 730 h, time 1 months
Mus musculus [29] = assay: Upregulation of Nrf2 protein expression in Kunming mouse liver nucleus at 300 mg/kg, ig for 1 month by western blot analysis; type: functional, organism-based; conditions: time 1.0 months
[30] = Hepatotoxicity in Kunming mouse assessed as induction of oxidative stress by measuring decrease in plasma CAT level at 300 mg/kg, ig for 1 month; type: toxicity, organism-based; conditions: in vivo, po, 730 h, time 1 months
[31] = Hepatotoxicity in Kunming mouse assessed as induction of inflammatory response by measuring upregulation of IL-6 level in liver at 300 mg/kg, ig for 1 month by western blot analysis; type: toxicity, organism-based; conditions: in vivo, po, 730 h, time 1 months
[32] = Hepatotoxicity in Kunming mouse assessed as increase in plasma aspartate transaminase level at 300 mg/kg, ig for 1 month; type: toxicity, organism-based; conditions: in vivo, po, 730 h, time 1 months
[33] = Hepatotoxicity in Kunming mouse assessed as cell infiltration in central vein and inflammatory cell infiltration at 300 mg/kg, ig for 1 month by H and E staining based analysis; type: toxicity, organism-based; conditions: in vivo, po, 730 h, time 1 months
[34] = Hepatotoxicity in Kunming mouse assessed as induction of inflammatory response by measuring upregulation of TNF-alpha level in liver at 300 mg/kg, ig for 1 month by western blot analysis; type: toxicity, organism-based; conditions: in vivo, po, 730 h, time 1 months
[35] = Hepatotoxicity in Kunming mouse assessed as large areas of hepatocyte swelling, necrosis, loose cytoplasm, nuclear degeneration and dissolution at 300 mg/kg, ig for 1 month by H and E staining based analysis; type: toxicity, organism-based; conditions: in vivo, po, 730 h, time 1 months
[36] = Hepatotoxicity in Kunming mouse assessed as increase in plasma total protein level at 300 mg/kg, ig for 1 month; type: toxicity, organism-based; conditions: in vivo, po, 730 h, time 1 months
[37] = Hepatotoxicity in Kunming mouse assessed as induction of oxidative stress by measuring increase in plasma MDA level at 300 mg/kg, ig for 1 month; type: toxicity, organism-based; conditions: in vivo, po, 730 h, time 1 months
[38] = Upregulation of p-NF-kB-p65 protein expression in Kunming mouse liver at 300 mg/kg, ig for 1 month by western blot analysis; type: ADME, organism-based; conditions: in vivo, po, 730 h, time 1 months

CC(C)(Oc1ccc(Cl)cc1)C(=O)Oc1ccc2c(c1)OCO2
active: Activity (Mus musculus [11]) | Activity (Mus musculus [20])
Toxic: Activity [5] | Activity [10]
38.6%: inhibition in vivo at 362 µmol/kg (Mus musculus [1])
Non-Toxic: Activity [2] | Activity [3] | Activity [4] | Activity [6] | Activity [7] | Activity [8] | Activity [9] | Activity [12] | Activity [13] | Activity [14] | Activity [16] | Activity [17] | Activity [18] | Activity [19]
35.1%: inhibition in vivo at 362 µmol/kg (Mus musculus [15])

CCOC(=O)C(C)(C)Oc1ccc(Cl)cc1 [CLOFIBRATE]
Non-Toxic: Activity [28]
25.5%: inhibition in vivo at 362 µmol/kg (Mus musculus [1])
inactive: Activity (Mus musculus [26]) | Activity (Mus musculus [29])
Toxic: Activity [21] | Activity [22] | Activity [23] | Activity [24] | Activity [25] | Activity [27] | Activity [30] | Activity [31] | Activity [32] | Activity [33] | Activity [34] | Activity [35] | Activity [36] | Activity [37] | Activity [38]
21.2%: inhibition in vivo at 362 µmol/kg (Mus musculus [15])
